Results published in ChEMBL document CHEMBL5724914, “Linking interpersonal differences in gut microbiota composition and drug biotransformation activity” (2024).

settings: human gut metagenome, 24 h, 2 µM
Note: call rule not given here.

SMILES | Bacterial Biotransformation
CC(CN(C)C)CN1c2ccccc2CCc2ccccc21.O=C(O)/C=C\C(=O)O (stereo not given) [TRIMIPRAMINE MALEATE] | Compound metabolized
CN1CCC(=C2c3ccccc3CCc3cccnc32)CC1.O=C(O)/C=C\C(=O)O.O=C(O)/C=C\C(=O)O [AZATADINE MALEATE] | Compound NOT metabolized

assay: (§1) The drug is tested on Z-005 corresponding to metagenome with ENA study accession number: PRJEB37062 and ENA sample accession number: ERS12561805 for biotransformation under anaerobic condition. The drug concentrations were measured over 9 timepoints collected between 0 and 24 hours of incubation by liquid-chromatography-coupled mass spectrometry (LC–MS); settings: 2 µM

SMILES | Bacterial Biotransformation
CC(CN(C)C)CN1c2ccccc2CCc2ccccc21.O=C(O)/C=C\C(=O)O (stereo not given) [TRIMIPRAMINE MALEATE] | Compound NOT metabolized
CN1CCC(=C2c3ccccc3CCc3cccnc32)CC1.O=C(O)/C=C\C(=O)O.O=C(O)/C=C\C(=O)O [AZATADINE MALEATE] | Compound NOT metabolized

settings: human gut metagenome, 24 h, 2 µM; remark: another data set of the same source

SMILES | Bacterial Biotransformation
CC(CN(C)C)CN1c2ccccc2CCc2ccccc21.O=C(O)/C=C\C(=O)O (stereo not given) [TRIMIPRAMINE MALEATE] | Compound metabolized
CN1CCC(=C2c3ccccc3CCc3cccnc32)CC1.O=C(O)/C=C\C(=O)O.O=C(O)/C=C\C(=O)O [AZATADINE MALEATE] | Compound metabolized

assay: (§2) The drug is tested on Z-018 corresponding to pig gut metagenome with ENA study accession number: PRJEB37062 and ENA sample accession number: ERS12561817 for biotransformation under anaerobic condition. The drug concentrations were measured over 9 timepoints collected between 0 and 24 hours of incubation by liquid-chromatography-coupled mass spectrometry (LC–MS); settings: 2 µM

SMILES | Bacterial Biotransformation
CC(CN(C)C)CN1c2ccccc2CCc2ccccc21.O=C(O)/C=C\C(=O)O (stereo not given) [TRIMIPRAMINE MALEATE] | Compound NOT metabolized
CN1CCC(=C2c3ccccc3CCc3cccnc32)CC1.O=C(O)/C=C\C(=O)O.O=C(O)/C=C\C(=O)O [AZATADINE MALEATE] | Compound NOT metabolized

settings: human gut metagenome, 24 h, 2 µM; remark: another data set of the same source

SMILES | Bacterial Biotransformation
CC(CN(C)C)CN1c2ccccc2CCc2ccccc21.O=C(O)/C=C\C(=O)O (stereo not given) [TRIMIPRAMINE MALEATE] | Compound NOT metabolized
CN1CCC(=C2c3ccccc3CCc3cccnc32)CC1.O=C(O)/C=C\C(=O)O.O=C(O)/C=C\C(=O)O [AZATADINE MALEATE] | Compound NOT metabolized

settings: human gut metagenome, 24 h, 2 µM; remark: another data set of the same source

SMILES | Bacterial Biotransformation
CC(CN(C)C)CN1c2ccccc2CCc2ccccc21.O=C(O)/C=C\C(=O)O (stereo not given) [TRIMIPRAMINE MALEATE] | Compound metabolized
CN1CCC(=C2c3ccccc3CCc3cccnc32)CC1.O=C(O)/C=C\C(=O)O.O=C(O)/C=C\C(=O)O [AZATADINE MALEATE] | Compound NOT metabolized

assay: as §2, with “Z-007” for “Z-018”, “rat” for “pig”, “ERS12561807” for “ERS12561817”; settings: 2 µM

SMILES | Bacterial Biotransformation
CC(CN(C)C)CN1c2ccccc2CCc2ccccc21.O=C(O)/C=C\C(=O)O (stereo not given) [TRIMIPRAMINE MALEATE] | Compound NOT metabolized
CN1CCC(=C2c3ccccc3CCc3cccnc32)CC1.O=C(O)/C=C\C(=O)O.O=C(O)/C=C\C(=O)O [AZATADINE MALEATE] | Compound NOT metabolized

assay: as §2, with “WLS-240” for “Z-018”, “human” for “pig”, “ERS12561773” for “ERS12561817”; settings: 2 µM

SMILES | Bacterial Biotransformation
CC(CN(C)C)CN1c2ccccc2CCc2ccccc21.O=C(O)/C=C\C(=O)O (stereo not given) [TRIMIPRAMINE MALEATE] | Compound metabolized
CN1CCC(=C2c3ccccc3CCc3cccnc32)CC1.O=C(O)/C=C\C(=O)O.O=C(O)/C=C\C(=O)O [AZATADINE MALEATE] | Compound NOT metabolized

assay: as §2, with “Z-003” for “Z-018”, “ERS12561803” for “ERS12561817”; settings: 2 µM

SMILES | Bacterial Biotransformation
CC(CN(C)C)CN1c2ccccc2CCc2ccccc21.O=C(O)/C=C\C(=O)O (stereo not given) [TRIMIPRAMINE MALEATE] | Compound metabolized
CN1CCC(=C2c3ccccc3CCc3cccnc32)CC1.O=C(O)/C=C\C(=O)O.O=C(O)/C=C\C(=O)O [AZATADINE MALEATE] | Compound NOT metabolized

settings: human gut metagenome, 24 h, 2 µM; remark: another data set of the same source

SMILES | Bacterial Biotransformation
CC(CN(C)C)CN1c2ccccc2CCc2ccccc21.O=C(O)/C=C\C(=O)O (stereo not given) [TRIMIPRAMINE MALEATE] | Compound metabolized
CN1CCC(=C2c3ccccc3CCc3cccnc32)CC1.O=C(O)/C=C\C(=O)O.O=C(O)/C=C\C(=O)O [AZATADINE MALEATE] | Compound NOT metabolized

assay: as §1, with “Z-012” for “Z-005”, “ERS12561812” for “ERS12561805”; settings: 2 µM

SMILES | Bacterial Biotransformation
CC(CN(C)C)CN1c2ccccc2CCc2ccccc21.O=C(O)/C=C\C(=O)O (stereo not given) [TRIMIPRAMINE MALEATE] | Compound metabolized
CN1CCC(=C2c3ccccc3CCc3cccnc32)CC1.O=C(O)/C=C\C(=O)O.O=C(O)/C=C\C(=O)O [AZATADINE MALEATE] | Compound NOT metabolized

settings: human gut metagenome, 24 h, 2 µM; remark: another data set of the same source

SMILES | Bacterial Biotransformation
CC(CN(C)C)CN1c2ccccc2CCc2ccccc21.O=C(O)/C=C\C(=O)O (stereo not given) [TRIMIPRAMINE MALEATE] | Compound NOT metabolized
CN1CCC(=C2c3ccccc3CCc3cccnc32)CC1.O=C(O)/C=C\C(=O)O.O=C(O)/C=C\C(=O)O [AZATADINE MALEATE] | Compound NOT metabolized

assay: as §2, with “Z-029” for “Z-018”, “rat” for “pig”, “ERS12561828” for “ERS12561817”; settings: 2 µM

SMILES | Bacterial Biotransformation
CC(CN(C)C)CN1c2ccccc2CCc2ccccc21.O=C(O)/C=C\C(=O)O (stereo not given) [TRIMIPRAMINE MALEATE] | Compound NOT metabolized
CN1CCC(=C2c3ccccc3CCc3cccnc32)CC1.O=C(O)/C=C\C(=O)O.O=C(O)/C=C\C(=O)O [AZATADINE MALEATE] | Compound NOT metabolized

settings: human gut metagenome, 24 h, 2 µM; remark: another data set of the same source

SMILES | Bacterial Biotransformation
CC(CN(C)C)CN1c2ccccc2CCc2ccccc21.O=C(O)/C=C\C(=O)O (stereo not given) [TRIMIPRAMINE MALEATE] | Compound metabolized
CN1CCC(=C2c3ccccc3CCc3cccnc32)CC1.O=C(O)/C=C\C(=O)O.O=C(O)/C=C\C(=O)O [AZATADINE MALEATE] | Compound NOT metabolized

assay: as §2, with “WLS-082” for “Z-018”, “human” for “pig”, “ERS12561751” for “ERS12561817”; settings: 2 µM

SMILES | Bacterial Biotransformation
CC(CN(C)C)CN1c2ccccc2CCc2ccccc21.O=C(O)/C=C\C(=O)O (stereo not given) [TRIMIPRAMINE MALEATE] | Compound metabolized
CN1CCC(=C2c3ccccc3CCc3cccnc32)CC1.O=C(O)/C=C\C(=O)O.O=C(O)/C=C\C(=O)O [AZATADINE MALEATE] | Compound NOT metabolized

settings: human gut metagenome, 24 h, 2 µM; remark: another data set of the same source

SMILES | Bacterial Biotransformation
CC(CN(C)C)CN1c2ccccc2CCc2ccccc21.O=C(O)/C=C\C(=O)O (stereo not given) [TRIMIPRAMINE MALEATE] | Compound metabolized
CN1CCC(=C2c3ccccc3CCc3cccnc32)CC1.O=C(O)/C=C\C(=O)O.O=C(O)/C=C\C(=O)O [AZATADINE MALEATE] | Compound NOT metabolized

settings: human gut metagenome, 24 h, 2 µM; remark: another data set of the same source

SMILES | Bacterial Biotransformation
CC(CN(C)C)CN1c2ccccc2CCc2ccccc21.O=C(O)/C=C\C(=O)O (stereo not given) [TRIMIPRAMINE MALEATE] | Compound metabolized
CN1CCC(=C2c3ccccc3CCc3cccnc32)CC1.O=C(O)/C=C\C(=O)O.O=C(O)/C=C\C(=O)O [AZATADINE MALEATE] | Compound NOT metabolized

settings: human gut metagenome, 24 h, 2 µM; remark: another data set of the same source

SMILES | Bacterial Biotransformation
CC(CN(C)C)CN1c2ccccc2CCc2ccccc21.O=C(O)/C=C\C(=O)O (stereo not given) [TRIMIPRAMINE MALEATE] | Compound NOT metabolized
CN1CCC(=C2c3ccccc3CCc3cccnc32)CC1.O=C(O)/C=C\C(=O)O.O=C(O)/C=C\C(=O)O [AZATADINE MALEATE] | Compound NOT metabolized

settings: human gut metagenome, 24 h, 2 µM; remark: another data set of the same source

SMILES | Bacterial Biotransformation
CC(CN(C)C)CN1c2ccccc2CCc2ccccc21.O=C(O)/C=C\C(=O)O (stereo not given) [TRIMIPRAMINE MALEATE] | Compound NOT metabolized
CN1CCC(=C2c3ccccc3CCc3cccnc32)CC1.O=C(O)/C=C\C(=O)O.O=C(O)/C=C\C(=O)O [AZATADINE MALEATE] | Compound NOT metabolized

assay: as §2, with “WLS-350” for “Z-018”, “human” for “pig”, “ERS12561789” for “ERS12561817”; settings: 2 µM

SMILES | Bacterial Biotransformation
CC(CN(C)C)CN1c2ccccc2CCc2ccccc21.O=C(O)/C=C\C(=O)O (stereo not given) [TRIMIPRAMINE MALEATE] | Compound NOT metabolized
CN1CCC(=C2c3ccccc3CCc3cccnc32)CC1.O=C(O)/C=C\C(=O)O.O=C(O)/C=C\C(=O)O [AZATADINE MALEATE] | Compound NOT metabolized
